Measurements published in ChEMBL document CHEMBL5325505, “Discovery of chiral 1,4-diarylazetidin-2-one-based hydroxamic acid derivatives as novel tubulin polymerization inhibitors with histone deacetylase inhibitory activity” (Bioorg Med Chem, 2023).
In brackets after ≈: the same amount, converted by molar mass. Activity calls are given as the source filed them. No cut-off for these calls is given here.

Tests used:
[1] = Metabolic stability in human liver microsomes assessed as half life; format: ADME, Microsome
BE(2)-C [2] = experiment: Inhibition of colony formation in human BE2C cells incubated for 36 hrs by gentian violet staining based assay; format: functional, cell-based; conditions: dose 25-100 nM
BE(2)-C [3] = experiment: Induction of apoptosis in human BE2C cells assessed as late apoptotic cells at 100 nM incubated for 48 hrs by annexin V-FITC/PI staining based flow cytometry (reference value: 9.99 %); format: functional
BE(2)-C [4] = experiment: Inhibition of colony formation in human BE2C cells at 100 nM incubated for 36 hrs by gentian violet staining based assay relative to control; format: functional
BE(2)-C [5] = experiment: Upregulation of acetylated tubulin expression in human BE2C cells by Western blot analysis; format: functional, cell-based; conditions: dose 25-100 nM
[6] = Metabolic stability in human liver microsomes assessed as compound remaining incubated for 20 mins; format: ADME, Microsome; conditions: microsomes, 20 min
Histone deacetylase 1 = Histone deacetylase 1 (Homo sapiens, UniProt Q13547); experiment: Inhibition of HDAC1 (unknown origin)
Sequence of Histone deacetylase 1 (Q13547 whole entry): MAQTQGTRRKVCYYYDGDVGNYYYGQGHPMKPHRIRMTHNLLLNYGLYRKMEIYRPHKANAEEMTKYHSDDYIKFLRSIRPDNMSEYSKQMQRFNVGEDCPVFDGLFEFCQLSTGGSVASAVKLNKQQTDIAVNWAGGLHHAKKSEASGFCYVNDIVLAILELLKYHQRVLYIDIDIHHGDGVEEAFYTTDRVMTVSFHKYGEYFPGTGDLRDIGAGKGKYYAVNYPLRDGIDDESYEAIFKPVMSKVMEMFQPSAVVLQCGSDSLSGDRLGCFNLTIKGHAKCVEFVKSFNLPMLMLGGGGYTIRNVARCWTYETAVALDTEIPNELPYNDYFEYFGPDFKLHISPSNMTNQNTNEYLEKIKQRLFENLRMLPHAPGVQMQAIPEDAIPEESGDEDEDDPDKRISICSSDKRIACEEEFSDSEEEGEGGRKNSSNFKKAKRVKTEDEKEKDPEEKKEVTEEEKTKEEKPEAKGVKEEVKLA

HCT-116 = experiment: Antiproliferative activity against human HCT-116 cells incubated for 48 hrs by MTT assay; format: functional, cell-based; conditions: HCT-116, 48 h
U-87 MG = experiment: Antiproliferative activity against human U-87 MG cells incubated for 48 hrs by MTT assay; format: functional, cell-based, U-87MG ATCC
BE(2)-C [7] = experiment: Induction of apoptosis in human BE2C cells assessed as early apoptotic cells at 50 nM incubated for 48 hrs by annexin V-FITC/PI staining based flow cytometry (reference value: 4.28 %); format: functional
BE(2)-C [8] = experiment: Induction of cell cycle arrest in human BE2C cells assessed as increase in cyclin B1 expression by Western blot analysis; format: functional, cell-based; conditions: dose 12.5-50 nM
Tubulin = Tubulin (Sus scrofa, UniProt P02554+P02550); experiment: (§1) Inhibition of tubulin polymerization of pig brain by absorbance based assay
Tubulin (Sus scrofa) = Tubulin (Sus scrofa) (UniProt P02554+P02550); experiment: as §1; conditions: dose 0.4-12 µM
Sequence of Tubulin (Sus scrofa) (P02550 whole entry, looked up): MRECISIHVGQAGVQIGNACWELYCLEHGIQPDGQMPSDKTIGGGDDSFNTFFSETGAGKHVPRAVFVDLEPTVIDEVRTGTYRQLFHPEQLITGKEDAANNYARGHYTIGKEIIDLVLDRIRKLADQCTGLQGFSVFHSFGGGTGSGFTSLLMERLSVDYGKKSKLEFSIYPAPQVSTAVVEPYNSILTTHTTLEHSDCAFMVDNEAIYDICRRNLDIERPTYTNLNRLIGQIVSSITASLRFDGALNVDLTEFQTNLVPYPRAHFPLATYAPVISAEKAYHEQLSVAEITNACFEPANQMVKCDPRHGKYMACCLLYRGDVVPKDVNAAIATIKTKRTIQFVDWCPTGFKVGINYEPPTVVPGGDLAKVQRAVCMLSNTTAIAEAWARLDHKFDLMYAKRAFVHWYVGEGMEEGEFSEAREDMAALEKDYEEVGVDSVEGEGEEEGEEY
Sequence of Tubulin (Sus scrofa) (P02554 whole entry, looked up): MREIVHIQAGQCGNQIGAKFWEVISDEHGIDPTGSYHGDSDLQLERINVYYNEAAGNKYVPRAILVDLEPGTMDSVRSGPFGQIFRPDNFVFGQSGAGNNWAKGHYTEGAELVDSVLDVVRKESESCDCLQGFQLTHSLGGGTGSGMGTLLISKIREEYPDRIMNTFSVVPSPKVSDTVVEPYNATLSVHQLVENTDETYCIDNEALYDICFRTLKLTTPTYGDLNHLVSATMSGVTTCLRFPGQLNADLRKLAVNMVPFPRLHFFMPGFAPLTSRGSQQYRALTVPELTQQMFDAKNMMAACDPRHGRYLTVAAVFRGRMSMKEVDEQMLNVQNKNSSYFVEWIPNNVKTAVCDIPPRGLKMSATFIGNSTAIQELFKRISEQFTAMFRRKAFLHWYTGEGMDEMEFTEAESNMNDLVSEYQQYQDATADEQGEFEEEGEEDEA

BE(2)-C [9] = experiment: Upregulation of Bax expression in human BE2C cells at 25 to 100 nM by Western blot analysis; format: functional, cell-based; conditions: dose 25-100 nM
Tubulin (Homo sapiens) [10] = target: T1, Tubulin (Homo sapiens) (UniProt P68371+Q9H4B7+P0DPH7+P68366+Q13509+Q71U36+P04350+Q3ZCM7+P07437+P68363+Q9BQE3+Q6PEY2+Q13885+Q9BVA1+Q9BUF5); experiment: Inhibition of tubulin polymerization in human BE2C cells assessed as decrease in tubulin density at 25 to 100 nM incubated for 24 hrs by immunofluorescence based microscopy; format: cell-based; conditions: dose 25-100 nM
[11] = Toxicity in nude mouse xenografted with human BE2C cells assessed as body weight loss at 25 mg/kg, ip treated for every 3 days; format: organism-based; conditions: in vivo, 72 h, time 3 day
[12] = Metabolic stability in human liver microsomes assessed as compound remaining incubated for 10 mins; format: ADME, Microsome; conditions: read-out: Stability
BE(2)-C [13] = experiment: Induction of apoptosis in human BE2C cells assessed as late apoptotic cells at 50 nM incubated for 48 hrs by annexin V-FITC/PI staining based flow cytometry (reference value: 9.99 %); format: functional
[14] = Metabolic stability in human liver microsomes assessed as compound remaining incubated for 30 mins; format: ADME, Microsome; conditions: liver microsomes, read-out: Stability
[15] = Aqueous solubility of compound at 1 mg incubated for 10 mins; format: physicochemical
BE(2)-C [16] = experiment: Induction of cell cycle arrest in human BE2C cells assessed as accumulation at G2/M phase at 100 nM incubated for 24 hrs by RNase/PI staining based flow cytometry (reference value: 31 %); format: functional
BE(2)-C [17] = experiment: Antiproliferative activity against human BE2C cells incubated for 48 hrs by MTT assay; format: functional, cell-based
BE(2)-C [18] = experiment: Upregulation of cleaved PARP-1 expression in human BE2C cells at 25 to 100 nM by Western blot analysis; format: functional, cell-based; conditions: dose 25-100 nM
[19] = Toxicity in nude mouse xenografted with human BE2C cells assessed as adverse effect at 25 mg/kg, ip treated for every 3 days; format: organism-based; conditions: in vivo, 72 h, time 3 day
BE(2)-C [20] = experiment: Induction of apoptosis in human BE2C cells assessed as early apoptotic cells at 25 nM incubated for 48 hrs by annexin V-FITC/PI staining based flow cytometry (reference value: 4.28 %); format: functional
BE(2)-C [21] = experiment: Upregulation of acetylated H3 expression in human BE2C cells by Western blot analysis; format: functional, cell-based; conditions: dose 25-100 nM
Tubulin (Homo sapiens) [22] = target: T1, Tubulin (Homo sapiens); experiment: Inhibition of tubulin polymerization in human BE2C cells assessed as disruption of fibrous microtubule network at 25 to 100 nM incubated for 24 hrs by immunofluorescence based microscopy; format: cell-based; conditions: dose 25-100 nM
BE(2)-C [23] = experiment: Induction of apoptosis in human BE2C cells assessed as late apoptotic cells at 25 nM incubated for 48 hrs by annexin V-FITC/PI staining based flow cytometry (reference value: 9.99 %); format: functional
BE(2)-C [24] = experiment: Induction of apoptosis in human BE2C cells assessed as viable cells at 50 nM incubated for 48 hrs by annexin V-FITC/PI staining based flow cytometry (reference value: 82.16 %); format: functional; conditions: read-out: Activity
[25] = Metabolic stability in human liver microsomes assessed as intrinsic clearance; format: ADME, Microsome; conditions: read-out: CLH
[26] = Metabolic stability in human liver microsomes assessed as compound remaining incubated for 5 mins; format: ADME, Microsome; conditions: read-out: Stability
BE(2)-C [27] = experiment: Upregulation of acetylated SMC3 expression in human BE2C cells by Western blot analysis; format: functional, cell-based; conditions: dose 25-100 nM
Histone deacetylase 8 = target: T2, Histone deacetylase 8 (Homo sapiens, UniProt Q9BY41); experiment: Inhibition of HDAC8 (unknown origin)
T2 sequence (Q9BY41 whole entry): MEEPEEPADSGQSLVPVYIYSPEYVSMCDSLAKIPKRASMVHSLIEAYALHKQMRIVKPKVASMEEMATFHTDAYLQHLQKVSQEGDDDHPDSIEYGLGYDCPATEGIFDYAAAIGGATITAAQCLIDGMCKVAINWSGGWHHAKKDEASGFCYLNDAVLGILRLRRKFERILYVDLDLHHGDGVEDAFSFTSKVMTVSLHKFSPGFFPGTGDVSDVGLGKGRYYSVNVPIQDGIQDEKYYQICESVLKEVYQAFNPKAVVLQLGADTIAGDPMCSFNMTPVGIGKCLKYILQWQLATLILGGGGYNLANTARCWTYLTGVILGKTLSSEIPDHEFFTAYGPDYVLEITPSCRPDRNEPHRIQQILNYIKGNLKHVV

BE(2)-C [28] = experiment: Induction of cell cycle arrest in human BE2C cells assessed as increase in phosphorylated H3 expression by Western blot analysis; format: functional, cell-based; conditions: dose 12.5-50 nM

SMILES: COc1ccc([C@H]2[C@H](COC(=O)c3ccc(C(=O)NO)cc3)C(=O)N2c2cc(OC)c(OC)c(OC)c2)cc1O
- t1/2 [1]: 1.15 h
- inhibition (BE(2)-C [2]): Active
- Activity (BE(2)-C [3]): 44%
- inhibition at 0.1 µM (BE(2)-C [4]): 100%
- Activity (BE(2)-C [5]): Dose-Dependent Effect
- Stability [6]: 61.3%
- IC50 (Histone deacetylase 1): 155 nM
- IC50 (HCT-116): 51 nM
- IC50 (U-87 MG): 56 nM
- Activity (BE(2)-C [7]): 12.23%
- Activity (BE(2)-C [8]): Dose-Dependent Effect
- IC50 (Tubulin): 5400 nM
- inhibition (Tubulin (Sus scrofa)): Dose-Dependent Effect
- Activity (BE(2)-C [9]): Active
- inhibition (Tubulin (Homo sapiens) [10]): Active
- Activity [11]: Non-Toxic
- remaining at 10 min [12]: 80%
- Activity (BE(2)-C [13]): 29.09%
- remaining at 0.5 h [14]: 58.2%
- solubility at 10 min [15]: 102 µg/mL (≈ 185 µM)
- Activity (BE(2)-C [16]): ~77%
- IC50 (BE(2)-C [17]): 17 nM
- Activity (BE(2)-C [18]): Active
- Activity [19]: Non-Toxic
- Activity (BE(2)-C [20]): 11.81%
- Activity (BE(2)-C [21]): Dose-Dependent Effect
- inhibition (Tubulin (Homo sapiens) [22]): Active
- Activity (BE(2)-C [23]): 19.01%
- viability at 0.05 µM (BE(2)-C [24]): 50.2%
- CLint scaled [25]: 18.1 mL/min/kg
- remaining at 5 min [26]: 89.4%
- Activity (BE(2)-C [27]): Dose-Dependent Effect
- IC50 (Histone deacetylase 8): 177 nM
- Activity (BE(2)-C [28]): Dose-Dependent Effect
